# Measurements reported in US11878013B2, “Isoquinoline derivative, preparing method thereof, and pharmaceutical composition for preventing or treating autophagy related diseases containing the same as an active ingredient” (Korea Research Institute of Chemical Technology, priority 2021, dated 2024).
# Legend:
# [1] = target: T1, hERG channel protein (Homo sapiens, UniProt Q12809); assay: hERG patch clamp test in HEK-293 cells overexpressing hERG; type: cell-based; conditions: at 10 μM
# T1 construct: expressed in transfected cells; host or cells: HEK-293
# T1 sequence (Q12809 whole entry): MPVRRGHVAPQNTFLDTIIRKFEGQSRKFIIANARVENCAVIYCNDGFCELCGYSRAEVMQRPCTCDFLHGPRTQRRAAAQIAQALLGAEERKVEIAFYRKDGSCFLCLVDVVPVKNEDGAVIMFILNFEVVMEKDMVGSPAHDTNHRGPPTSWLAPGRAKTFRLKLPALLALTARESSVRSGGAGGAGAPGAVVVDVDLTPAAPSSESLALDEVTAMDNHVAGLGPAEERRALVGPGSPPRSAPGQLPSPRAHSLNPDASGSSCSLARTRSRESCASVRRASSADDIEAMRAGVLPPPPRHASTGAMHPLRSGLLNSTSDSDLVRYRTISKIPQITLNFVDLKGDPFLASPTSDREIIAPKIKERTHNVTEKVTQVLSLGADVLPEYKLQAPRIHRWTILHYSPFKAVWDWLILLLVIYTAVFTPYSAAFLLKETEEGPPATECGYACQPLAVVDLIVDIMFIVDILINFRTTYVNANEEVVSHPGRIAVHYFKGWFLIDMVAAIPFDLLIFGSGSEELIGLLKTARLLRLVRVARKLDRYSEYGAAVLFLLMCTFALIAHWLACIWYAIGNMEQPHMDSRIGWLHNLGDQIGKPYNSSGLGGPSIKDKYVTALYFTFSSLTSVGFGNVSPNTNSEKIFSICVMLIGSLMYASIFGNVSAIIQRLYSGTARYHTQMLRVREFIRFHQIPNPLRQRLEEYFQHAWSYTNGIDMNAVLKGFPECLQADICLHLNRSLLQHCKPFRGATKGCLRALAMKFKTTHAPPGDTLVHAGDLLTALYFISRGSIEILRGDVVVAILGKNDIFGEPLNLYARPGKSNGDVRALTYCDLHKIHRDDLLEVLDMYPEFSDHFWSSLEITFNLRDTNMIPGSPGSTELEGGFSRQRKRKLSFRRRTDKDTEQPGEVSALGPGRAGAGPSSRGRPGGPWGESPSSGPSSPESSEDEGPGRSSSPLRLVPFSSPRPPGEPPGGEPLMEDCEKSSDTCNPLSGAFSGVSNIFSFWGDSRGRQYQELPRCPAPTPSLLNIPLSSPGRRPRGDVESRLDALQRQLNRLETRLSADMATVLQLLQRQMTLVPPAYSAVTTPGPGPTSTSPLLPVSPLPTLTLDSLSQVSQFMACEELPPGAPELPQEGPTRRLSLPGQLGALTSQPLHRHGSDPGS
# Method: In order to evaluate the possibility of inducing cardiotoxicity of the compound of Example 1 of the present invention in vivo, the inhibitory potential to the hERG (human ether-a-go-go related gene) K^+ channel protein, known as a main cause of arrhythmias, was tested.
# Next, in order to evaluate the activity of the hERG channel protein using an electrophysiological method, a patch clamp test was performed. The activity of the hERG channel protein was measured using the HEK-293 cell line overexpressing the hERG channel protein. The cells were acclimatized and cultured in a humidified 37° C. 5% CO2 incubator, washed with PBS (phosphate buffer solution) at the time of growth that occupies 70-80% of the culture dish every 2-3 days, and then subcultured by treating with Trypsin-EDTA. For the test, 2×10^5 cells were aliquoted in a 60 mm cell culture dish, and then cultured in a humidified 5% CO2 incubator for 48 hours. The cultured cells were detached by treating Trypsin-EDTA (Gibco, USA), and the flow of K^+ by the hERG channel protein was measured by applying an automated patch clamp equipment (PatchXpress, Molecular Device).
# [2] = system: zebrafish; assay: Whitening effect: melanin synthesis / melanocyte formation in zebrafish; type: in vivo
# Description: When observing the regeneration of melanin pigment, after inhibiting the formation of melanin pigment, it can be investigated by limiting it to the melanocyte generation pathway, and it is easy to observe the melanin synthesized in the initial stage of development. Therefore, zebrafish is more useful for the study of melanin pigment changes compared to other animal models (Logan D W, Burn S F, Jackson I J. (2006) Regulation of pigmentation in zebrafish melanophores. Pigment Cell Res. 2006 June; 19(3):206-13.).
# Particularly, zebrafish fertilized eggs 10 hours after fertilization were placed in a 24-well plate (10 eggs/well), and 1 ml of egg water was added to each well of the plate. The compound of Example 1 was added to each well at the concentrations of 0.1 μM and 1 μM, so that the final volume of each well was 2 ml. Then, each 24-well plate was wrapped in foil to block light, and then incubated in a 28° C. incubator for 22 hours. At 32 hours after fertilization, in order to photograph the formation of black melanocytes, the chorion of the developing embryo was peeled off using a forcep (Fine Science Tools). After anesthetizing the developing embryo with Tricaine (4 g/L), the embryo was photographed on 3% methyl cellulose. As the equipment for photographing the developing embryo, a LEICA MZ10F fluorescence microscope, a LEICA DFC425 camera, and Leica Application Suite software (v4.5) were used. In all the experimental procedures, egg water sterilized after dissolving 60 mg/L of sea salt (Sigma-Aldrich, S9883) in tertiary distilled water was used as a solution for culturing the developing embryo. As a control group, a solvent control group (0.4% DMSO) and phenylthiourea (200 μM PTU), known as a tyrosinase inhibitor, were used (FIG. 6A).
# In the same manner, experiments were performed with the compound of Comparative Example 1 at the concentrations of 0.5 μM, 1 μM, and 5 μM, and the results are shown in FIG. 6B.
# On the other hand, in order to confirm the ability of the compound of the present invention to inhibit the melanin synthesis of the already generated melanocytes, the following experiment was performed with juvenile fish 60 hours after fertilization. Particularly, juvenile fish 60 hours after fertilization were placed in a 24-well plate (10/well), and 1 ml of egg water was added to each well of the plate. The compound of Example 1 was added to each well at the concentrations of 10 μM and 20 μM, so that the final volume of each well was 2 ml. Then, each 24-well plate was wrapped in foil to block light, and then incubated in a 28° C. incubator for 12 hours. In order to photograph the formation of black melanocytes, the developing embryo was anesthetized with Tricaine (4 g/L), and then the embryo was photographed on 3% methyl cellulose. […]
# [3] = system: zebrafish; assay: Fatty liver inhibitory effect in tamoxifen-treated zebrafish juvenile fish (LipidGreen2 staining); type: in vivo
# Method: In order to evaluate the inhibitory efficacy of the novel isoquinoline derivative of the present invention on fatty liver, an experiment was performed as follows using LipidGreen2 staining reagent capable of staining lipid droplets.
# Particularly, the zebrafish used in this Experimental Example were juvenile fish 5 days after fertilization. Healthy juvenile fish were placed in a 24-well plate (10/well), and 1 ml of egg water was added to each well of the plate. As a negative control that could not regulate fatty liver, DMSO diluted at 0.4% was exposed to juvenile fish, and tamoxifen (Sigma-Aldrich, T5648) diluted at 5 μM was exposed to juvenile fish to control […] fatty liver. In order to investigate the fatty liver inhibitory efficacy of the compound of Example 1 of the present invention, the compound (0.5 μM, 1 μM and 5 μM) was mixed with 5 μM tamoxifen and exposed to juvenile fish (final volume of each well: 2 ml). The 24-well plate containing the compound was wrapped in foil to block light, and then incubated in a 28° C. incubator for 22 hours. The plate was washed with egg water 3 times for 5 minutes to remove the compound from each well. For fat-specific staining, LipidGreen2 diluted at 5 μM was exposed to juvenile fish for 30 minutes, and then washed 3 times with egg water for 5 minutes. To evaluate the fatty liver of zebrafish juvenile fish, the developing embryo was anesthetized with Tricaine (4 g/L), and then photographed on 3% methyl cellulose. As the equipment for photographing the developing embryo, a LEICA MZ10F fluorescence microscope, a LEICA DFC425 camera, and Leica Application Suite software (v4.5) were used. For the fluorescence wavelength, a GFP Plants filter set (Excitation 470/40 nm, Emission 525/50 nm) was used. To quantify the liver area and the degree of fat staining of juvenile fish on the image, the area and the fluorescence intensity of the liver part of each image were quantified using ImageJ 1.50i software (National Institutes of Health, USA) and converted into heatmap images.
smiles,measurement,setting,value
"[O-][S+](c1ccc(F)cc1)c1nccc2ccccc12 (stereo not shown) [Example 1, 1-((4-Fluorophenyl)Sulfinyl)Isoquinoline]",inhibition of the activity of the hERG channel protein,[1],about 10%
same,synthesis of melanin,"[2]; 1 μM, treated 10 hours after fertilization, read at 32 hours after fertilization, PTU 200 μM as control",level similar to that in the group treated with PTU
same,melanin synthesis inhibitory effect,"[2]; 20 μM, treated 60 hours after fertilization, read at 72 hours after fertilization, compared to PTU 0.2 mM",superior melanin synthesis inhibitory effect compared to PTU
same,superior activity compared to Comparative Example 1 (melanin synthesis inhibition),"[2]; 32 hours after fertilization, 1 μM vs 5 μM for PTU-like effect",≥ 5 fold
same,fatty liver (LipidGreen2 fat staining),"[3]; 0.5, 1 and 5 μM mixed with 5 μM tamoxifen, 22 hours, juvenile fish 5 days after fertilization",restored to the normal level
same,liver area,"[3]; compound mixed with 5 μM tamoxifen, 22 hours (FIG. 8 top)",maintained at the liver area level of normal juvenile fish
same,fluorescence intensity of liver (LipidGreen2),"[3]; compound mixed with 5 μM tamoxifen, compared to tamoxifen group (FIG. 8 bottom)",decreased to the normal level
